Ten compounds from patent US6271238A, “Acetamide derivatives and protease inhibitors” (Nippon Kayaku Kabushiki Kaisha, priority 1996, dated 2001) can be followed below.

Counter-ions that a name gives are not always drawn. Like-named read-outs stand apart in the source and are kept apart here.

What all share (format): biochemical
One assay has as its target T1, rat chymase (Rattus norvegicus, UniProt P09650).
T1 construct: 50 g rat tongue was finely divided by scissors and a scalpel; from tissue; host or cells: rat tongue
T1 sequence (P09650 21-260): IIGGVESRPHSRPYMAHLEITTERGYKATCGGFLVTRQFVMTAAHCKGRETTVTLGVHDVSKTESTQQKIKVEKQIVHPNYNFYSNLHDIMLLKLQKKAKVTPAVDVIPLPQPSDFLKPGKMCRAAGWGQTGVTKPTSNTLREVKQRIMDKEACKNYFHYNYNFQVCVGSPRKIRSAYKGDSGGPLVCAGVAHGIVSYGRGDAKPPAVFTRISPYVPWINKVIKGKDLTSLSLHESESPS
The experiment in a line: Inhibitory activity on rat chymase (synthetic substrate). How it is done:
In the present invention, chymase was purified by the methods described in these literatures, and the present compounds were examined for inhibitory activity on chymase, inhibitory action on activation of mast cells and eosinophils, and pharmacological action in animals. Hereinafter, specific methods are described. […] 50 g rat tongue was finely divided by scissors and a scalpel, suspended in 0.1 M phosphate buffer (pH 8.0), and disrupted by a Polytron homogenizer for 5 minutes to prepare a crude chymase enzyme solution. […] The supernatant was applied to an octyl Sepharose 4B column (40×100 mm) previously equilibrated with 0.1 M phosphate buffer (pH 8.0) containing 2 M sodium chloride and 5% ammonium sulfate, and the protein was eluted with a linear concentration gradient of from 2 M to 0 M sodium chloride. […] (D) Measurement of inhibitory activity on chymase (a) Measurement using the synthetic substrate The synthetic chymase substrate was used for measurement of the inhibitory activity on the rat chymase as a subtrate, and the fluorescence of formed aminomethylcoumarin after reaction was measured by a spectrophotometer. […] The test was conducted several times. Chymase was prepared for each test in the manner described above. The compounds examined were compounds prepared in the above-described examples. […] Succinyl leucyl leucyl valyl tyrosyl methylcoumarylamide (for rat […] angiotensin I (for human and dog chymase)

A further assay addresses T2, dog chymase (Canis lupus familiaris, UniProt P21842).
T2 construct: 60 g dog heart was finely divided by scissors and a scalpel; from tissue; host or cells: dog heart
T2 sequence (P21842 22-249): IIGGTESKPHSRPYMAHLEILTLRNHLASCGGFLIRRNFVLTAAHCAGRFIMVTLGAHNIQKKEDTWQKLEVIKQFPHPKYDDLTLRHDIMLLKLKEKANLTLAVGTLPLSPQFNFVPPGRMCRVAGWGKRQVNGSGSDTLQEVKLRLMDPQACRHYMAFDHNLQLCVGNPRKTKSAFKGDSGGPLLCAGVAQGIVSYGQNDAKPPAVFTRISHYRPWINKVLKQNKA
The experiment in a line: Inhibitory activity on dog chymase (angiotensin I as substrate). Particulars: pH 8.0, 37° C., 60 min, read-out: Dog Chymase (IC50: nM), 50% inhibitory concentration. From the text:
It is known that chymase is present in tissues of various animals, and its isolation and purification methods are described in Anal. Biochem., 137, 449 (1984) and FEBS Letters, 323, 119 (1993). In the present invention, chymase was purified by the methods described in these literatures, and the present compounds were examined for inhibitory activity on chymase, inhibitory action on activation of mast cells and eosinophils, and pharmacological action in animals. Hereinafter, specific methods are described. (c) Preparation of dog chymase 60 g dog heart was finely divided by scissors and a scalpel, suspended in 0.1 M phosphate buffer (pH 8.0), and disrupted by a Polytron homogenizer for 5 minutes to prepare a crude chymase enzyme solution. It was centrifuged at 22000×g for 15 minutes, and the precipitates were used as a chymase enzyme fraction. […] An active fraction decomposing the synthetic chymase substrate was recovered and concentrated and this product was used as a purified dog chymase in the following activity measurement. (D) Measurement of inhibitory activity on chymase (b) Measurement using angiotensin I as substrate The inhibitory activity on the human chymase and dog chymase was measured using angiotensin I (Peptide Kenkyusho) as substrate besides the above synthetic substrate. […] After the end of the reaction, produced angiotensin II was immediately measured by high performance liquid chromatography to determine the activity of the chymase to calculate 50% inhibitory concentration (IC50: nM). The test was conducted several times. Chymase was prepared for each test in the manner described above. The compounds examined were compounds prepared in the above-described examples. […] 50% Inhibitory concentration (IC50: nM) of each compound toward rat chymase, dog […] human […] Substrate: Succinyl leucyl leucyl valyl tyrosyl methylcoumarylamide (for rat […] angiotensin I (for human and dog chymase)

Another assay addresses T3, Human cathepsin G (Homo sapiens, UniProt P08311).
T3 sequence (P08311 21-255): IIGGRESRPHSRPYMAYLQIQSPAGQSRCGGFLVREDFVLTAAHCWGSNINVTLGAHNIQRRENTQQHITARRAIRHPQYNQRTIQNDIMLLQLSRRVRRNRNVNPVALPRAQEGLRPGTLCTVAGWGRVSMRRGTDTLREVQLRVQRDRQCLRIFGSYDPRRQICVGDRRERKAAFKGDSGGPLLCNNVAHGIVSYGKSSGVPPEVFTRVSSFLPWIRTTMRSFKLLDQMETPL
The experiment in a line: Inhibitory activity on proteases other than chymase: human cathepsin G. Particulars: succinyl alanyl alanyl propyl phenylmethylcoumarylamide substrate; read-out: 50% Inhibitory concentration toward Human cathepsin G. The protocol: (§1) (E) Measurement of inhibitory activity on proteases other than chymase
(§2) The inhibitory activity of the present compounds on human elastase, human cathepsin G, human urokinase, human thrombin, human plasmin, and human factor Xa was determined using their corresponding synthetic substrates in the same manner as for chymase. All the above proteases were those commercially available from Boehringer Mannheim or purified by a combination of known methods. The synthetic substrates were those produced by Peptide Renkyusho. The synthetic substrates for the respective proteases are as follows.
Human cathepsin G Succinyl alanyl alanyl propyl phenylmethyl-
(§3) The test was conducted several times. Chymase was prepared for each test in the manner described above. The compounds examined were compounds prepared in the above-described examples.

The next assay concerns the target T4, Human elastase (Homo sapiens, UniProt P08246).
T4 sequence (P08246 30-247 limits assumed): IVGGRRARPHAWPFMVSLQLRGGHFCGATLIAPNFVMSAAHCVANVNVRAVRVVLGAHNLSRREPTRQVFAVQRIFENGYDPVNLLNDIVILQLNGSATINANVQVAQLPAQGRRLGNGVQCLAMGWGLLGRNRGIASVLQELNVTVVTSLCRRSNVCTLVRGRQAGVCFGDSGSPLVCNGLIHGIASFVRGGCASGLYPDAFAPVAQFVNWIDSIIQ
In words: Inhibitory activity on proteases other than chymase: human elastase. The conditions noted are these: succinyl alanyl propyl alanyl methylcoumarylamide substrate; read-out: 50% Inhibitory concentration toward Human elastase. How it is done:
as §1, §2
Human elastase Succinyl alanyl propyl alanyl methylcoumarylamide
as §3

Another assay addresses T5, Human thrombin (Homo sapiens, UniProt P00734).
T5 construct: human thrombin
The experiment in a line: Inhibitory activity on proteases other than chymase: human thrombin. How it is done:
as §1, §2
Human thrombin Benzyloxycarbonyl asparginyl prolyl arginyl
as §3

The target of a further assay is T6, Human plasmin (Homo sapiens, UniProt P00747).
T6 construct: human plasmin
T6 sequence (P00747 581-810 limits assumed): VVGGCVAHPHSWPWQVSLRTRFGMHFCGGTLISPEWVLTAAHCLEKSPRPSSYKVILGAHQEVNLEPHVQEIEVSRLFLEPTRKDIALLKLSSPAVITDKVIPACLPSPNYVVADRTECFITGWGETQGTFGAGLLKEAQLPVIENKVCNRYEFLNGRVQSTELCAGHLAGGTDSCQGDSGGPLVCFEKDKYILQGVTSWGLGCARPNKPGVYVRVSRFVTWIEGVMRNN
T6 sequence (P00747 97-580 partner limits assumed): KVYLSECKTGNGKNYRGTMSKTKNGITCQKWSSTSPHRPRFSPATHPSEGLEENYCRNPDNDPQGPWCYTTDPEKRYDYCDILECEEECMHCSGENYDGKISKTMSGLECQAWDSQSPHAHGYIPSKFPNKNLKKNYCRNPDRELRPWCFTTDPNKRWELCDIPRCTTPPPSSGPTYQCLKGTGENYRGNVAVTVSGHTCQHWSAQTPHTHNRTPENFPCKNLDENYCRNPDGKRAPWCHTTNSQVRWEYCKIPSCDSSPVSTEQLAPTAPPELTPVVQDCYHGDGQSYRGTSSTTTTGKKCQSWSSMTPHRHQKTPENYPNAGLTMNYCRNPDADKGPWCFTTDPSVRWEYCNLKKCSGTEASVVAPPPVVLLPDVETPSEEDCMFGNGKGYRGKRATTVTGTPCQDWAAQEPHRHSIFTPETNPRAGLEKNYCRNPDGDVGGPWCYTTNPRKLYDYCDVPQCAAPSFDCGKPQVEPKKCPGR
In words: Inhibitory activity on proteases other than chymase: human plasmin. The conditions noted are these: benzyloxycarbonyl valyl leucyl lyzyl methylcoumarylamide substrate; read-out: 50% Inhibitory concentration toward Human plasmin. The protocol:
as §1, §2
Human plasmin Benzyloxycarbonyl valyl leucyl lyzyl
as §3

The target in another assay is T7, Human factor Xa (Homo sapiens, UniProt P00742).
T7 construct: human factor Xa
T7 sequence (P00742 235-488 limits assumed): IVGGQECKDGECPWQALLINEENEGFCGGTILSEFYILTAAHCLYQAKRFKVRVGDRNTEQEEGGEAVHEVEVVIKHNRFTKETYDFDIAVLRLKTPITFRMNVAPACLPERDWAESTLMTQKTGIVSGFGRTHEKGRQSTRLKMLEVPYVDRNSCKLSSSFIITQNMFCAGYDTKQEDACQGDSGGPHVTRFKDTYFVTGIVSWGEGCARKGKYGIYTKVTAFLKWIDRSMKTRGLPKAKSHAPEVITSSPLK
T7 sequence (P00742 41-179 partner limits assumed): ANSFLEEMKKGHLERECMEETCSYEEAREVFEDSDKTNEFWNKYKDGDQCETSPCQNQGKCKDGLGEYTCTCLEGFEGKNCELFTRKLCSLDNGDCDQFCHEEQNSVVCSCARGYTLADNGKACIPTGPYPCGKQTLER
The experiment in a line: Inhibitory activity on proteases other than chymase: human factor Xa. The protocol:
as §1, §2
Human factor Xa Phenylmethyloxycarbonyl pyridyl glycyl arginyl
as §3

The subject of another assay is other human proteases. The experiment in a line: Inhibitory activity on other human proteases (summary). The protocol: as §1, §2, §3
[1] abbreviates: substrate succinyl leucyl leucyl valyl tyrosyl methylcoumarylamide, pH 8.0, 37° C., 15 min, read-out: Rat Chymase (IC50: nM), 50% inhibitory concentration.

Regarding `CC(C)(C)OC(=O)Nc1cnc(-c2ccccc2)n(CC(=O)NC(Cc2ccccc2)C(=O)C(=O)CCCOc2ccccn2)c1=O` (centres unmarked) [Compound 74, 2-(5-t-Butyloxycarbonylamino-6-oxo-2-phenyl-1,6-dihydropyrimidine-1-yl)-N-{2,3-dioxo-6-(2-pyridyloxy)-1-phenylmethyl}hexylacetamide], the IC50 is 510 nM at rat chymase (setting [1]); 0.92 nM at dog chymase; 90 nM at Human cathepsin G; 6000 nM at Human elastase; more than 10000 nM on Human thrombin; more than 10000 nM at Human plasmin. Further, the IC50 on Human factor Xa is more than 10000 nM. The “inhibitory activity on other human proteases, in words” value (shortened to “inhibitory activity”) in the assay with other human proteases was “no inhibitory activity on other human proteases”.
Regarding `O=C(Cn1c(-c2ccccc2)ncc(NS(=O)(=O)NCc2ccccc2)c1=O)NC(Cc1ccccc1)C(=O)C(=O)CCCOc1ccccn1` (centres unmarked) [Compound 82, 2-(5-Benzylaminosulfonylamino-6-oxo-2-phenyl-1,6-dihydropyrimidine-1-yl)-N-{2,3-dioxo-1-phenylmethyl-6-(2-pyridyloxy)}hexylacetamide], the IC50 against rat chymase was 19 nM; on dog chymase, 0.14 nM; at Human cathepsin G, 19 nM; at Human elastase, 4000 nM; on Human thrombin, more than 10000 nM; at Human plasmin, more than 10000 nM. For the same compound, the IC50 on Human factor Xa is more than 10000 nM. Further, the “inhibitory activity” value in the assay with other human proteases was “no inhibitory activity on other human proteases”.
For the compound `CC(=O)Nc1cnc(-c2ccccc2)n(CC(=O)NC(Cc2ccccc2)C(=O)C(=O)CCCOc2ccccn2)c1=O` (centres unmarked) [Compound 80, 2-(5-Acetylamino-6-oxo-2-phenyl-1,6-dihydropyrimidine1-yl)-N-{2,3-dioxo-1-phenylmethyl-6-(-2-pyridyloxy)}hexyl-acetamide], the IC50 on rat chymase (setting [1]) is 52 nM; on dog chymase it was 0.35 nM; on Human cathepsin G, 18 nM; at Human elastase, 2100 nM; at Human thrombin it was more than 10000 nM; on Human plasmin, more than 10000 nM. For the same compound, on Human factor Xa, the IC50 was more than 10000 nM. In addition, the “inhibitory activity” value in the assay with other human proteases was “no inhibitory activity on other human proteases”.
With `CC(=O)C(=O)C(Cc1cccc(F)c1)NC(=O)Cn1c(-c2ccccc2)ncc(N)c1=O` (centres unmarked) [Compound 52, 2-(5-Amino-6-oxo-2-phenyl-1,6-dihydropyrimidine-1-yl)-N-{1-(3-fluorophenyl)methyl-2,3-dioxo}butylacetamide], the IC50 on rat chymase (setting [1]) is 190 nM; at dog chymase, 27 nM; on Human cathepsin G, 350 nM; at Human elastase it was more than 10000 nM; on Human thrombin, more than 10000 nM; on Human plasmin it was more than 10000 nM. The IC50 on Human factor Xa is more than 10000 nM.
Take `O=CNc1cnc(-c2ccccc2)n(CC(=O)NC(Cc2ccccc2)C(=O)C(=O)CCCOc2ccccn2)c1=O` (centres unmarked) [Compound 79, 2-(5-Formylamino-6-oxo-2-phenyl-1,6-dihydropyrimidine-1-yl)-N-{2,3-dioxo-1-phenylmethyl-6-(2-pyridyloxy)}hexylacetamide]: the IC50 at rat chymase (setting [1]) was 19 nM; on dog chymase, 0.32 nM; at Human cathepsin G, 420 nM; on Human elastase, more than 10000 nM; on Human thrombin, more than 10000 nM; on Human plasmin it was more than 10000 nM. At Human factor Xa, the IC50 is more than 10000 nM. Besides, in the assay with other human proteases, the “inhibitory activity” value was “no inhibitory activity on other human proteases”.
In the case of `CC(C)(C)OC(=O)Nc1cnc(-c2ccccc2)n(CC(=O)NC(Cc2ccccc2)C(=O)C(=O)CCCn2ccccc2=O)c1=O` (centres unmarked) [Compound 72, 2-(5-t-Butyloxycarbonylamino-6-oxo-2-phenyl-1,6-dihydropyrimidine-1-yl)-N-{2,3-dioxo-6-(2-oxo-1,2-dihydropyridine-1-yl)-1-phenylmethyl}hexylacetamide], the IC50 on rat chymase (setting [1]) was 2100 nM; on dog chymase it was 1.6 nM; at Human cathepsin G it was 540 nM; at Human elastase, 5500 nM; at Human thrombin it was more than 10000 nM; on Human plasmin, more than 10000 nM. Besides, at Human factor Xa, the IC50 was more than 10000 nM. Further, in the assay with other human proteases, the “inhibitory activity” value was “no inhibitory activity on other human proteases”.
Take `Nc1cnc(-c2ccccc2)n(CC(=O)NC(Cc2ccccc2)C(=O)C(=O)CCCn2ccccc2=O)c1=O` (centres unmarked) [Compound 73, 2-(5-Amino-6-oxo-2-phenyl-1,6-dihydropyrimidine-1-yl)-N-{2,3-dioxo-1-phenylmethyl-6-(2-oxo-1,2-dihydropyridine-1-yl)}hexylacetamide hydrochloride]: the IC50 at rat chymase (setting [1]) came out at 550 nM; on dog chymase, 2.9 nM. Besides, the “inhibitory activity” value in the assay with other human proteases is “no inhibitory activity on other human proteases”.
Turning to `Nc1cnc(-c2ccccc2)n(CC(=O)NC(Cc2ccccc2)C(=O)C(=O)CCCc2ccccc2)c1=O` (centres unmarked) [Compound 40], the IC50 was 46 nM on rat chymase (setting [1]); 13 nM on dog chymase; more than 10000 nM on Human cathepsin G; 1900 nM on Human elastase; more than 10000 nM at Human thrombin; more than 10000 nM at Human plasmin. Further, the IC50 at Human factor Xa was more than 10000 nM.
On to `CCOC(=O)CCCC(=O)C(=O)C(Cc1cccc(F)c1)NC(=O)Cn1c(-c2ccccc2)ncc(N)c1=O` (centres unmarked) [Compound 54], for which the IC50 is 45 nM at rat chymase (setting [1]) and 3.6 nM on dog chymase. Besides, in the assay with other human proteases, the “inhibitory activity” value is recorded as “no inhibitory activity on other human proteases”.
For `CCCCC(=O)C(=O)C(Cc1ccccc1)NC(=O)Cn1c(-c2ccccc2)ncc(N)c1=O` (centres unmarked) [Compound 44], the IC50 on rat chymase (setting [1]) came out at 79 nM; at dog chymase, 16 nM.
